Experimental data reported in PubChem BioAssay (NCI).
“And” between values parts separate entries of the source, which are not always exact repeats. Identical values can stand only once.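 Cells were grown in 96-well plates and exposed to each compound for 48 hours at five concentrations; endpoints were interpolated linearly between bracketing concentrations, or set to the highest concentration if not reached. The concentration for 50% growth inhibition is given as GI50. TGI: concentration producing complete growth inhibition.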

Key:
Test in all cases: NCI-60 cell line screen, 48 h
TK-10 renal = system: TK-10 renal
SW-620 colon = system: SW-620 colon
UACC-62 melanoma = system: UACC-62 melanoma
CAKI-1 renal = system: CAKI-1 renal
NCI-H522 lung = system: NCI-H522 lung
A549 NSCLC = system: A549 NSCLC
RXF 393 renal = system: RXF 393 renal
786-0 renal = system: 786-0 renal
SK-MEL-2 melanoma = system: SK-MEL-2 melanoma
HCT-15 colon = system: HCT-15 colon

Structure (SMILES) | GI50 (TK-10 renal) | TGI (TK-10 renal) | GI50 (SW-620 colon) | TGI (SW-620 colon) | GI50 (UACC-62 melanoma) | TGI (UACC-62 melanoma) | GI50 (CAKI-1 renal) | TGI (CAKI-1 renal) | GI50 (NCI-H522 lung) | TGI (NCI-H522 lung) | GI50 (A549 NSCLC) | TGI (A549 NSCLC) | GI50 (RXF 393 renal) | TGI (RXF 393 renal) | GI50 (786-0 renal) | TGI (786-0 renal) | GI50 (SK-MEL-2 melanoma) | TGI (SK-MEL-2 melanoma) | GI50 (HCT-15 colon) | TGI (HCT-15 colon)
CC(=O)[CH-]C(=O)Nc1ccccc1.CC(=O)[CH-]C(=O)Nc1ccccc1.CC[O-].CC[O-].[Ti+4] | > 100 µM | > 100 µM | > 100 µM | > 100 µM | > 100 µM | > 100 µM | > 100 µM | > 100 µM | > 100 µM | > 100 µM | > 100 µM | > 100 µM | > 100 µM | > 100 µM | > 100 µM | > 100 µM | > 100 µM | > 100 µM | > 100 µM | > 100 µM
Cn1nnc2c(C(N)=O)ncn2c1=O | – | > 100 µM | – | > 100 µM | – | > 100 µM | – | > 100 µM | – | > 100 µM | – | > 100 µM | – | > 100 µM | – | > 100 µM | – | > 100 µM | – | > 100 µM
Oc1c(Cl)cc(Cl)c2cccnc12 | 5.56 µM | 30.8 µM | 4.47 µM | 18.4 µM | 1.79 µM | 5.04 µM | 2.71 µM | 19 µM | 1.83 µM | 4.85 µM | 3.49 µM | 29.6 µM | 2.25 µM | 7.91 µM | 3.29 µM | 11.8 µM | 3.83 µM | 11.5 µM | 4.73 µM | 25.9 µM
OCc1ccc(N2CCCC2)cc1Cl | 0.201 µM | 0.556 µM | 10.7 µM | > 100 µM | 0.879 µM | 4.28 µM | 14.3 µM | 50.3 µM | 14.5 µM | 32.5 µM | 23.2 µM | > 100 µM | 9.57 µM | 27.1 µM | 27.5 µM | > 100 µM | 12.9 µM | 51.5 µM | 31 µM | > 100 µM
CCN1C(=O)N(CC)C2C1NN=c1s/c(=C\c3ccc[nH]3)c(=O)n12 (stereo not drawn) | > 47.8 µM | > 100 µM | 0.326 µM | > 100 µM | 0.435 µM | > 100 µM | 0.301 µM | > 100 µM | 0.244 µM | 8.34 µM | 0.523 µM | > 100 µM | 0.286 µM | 2.19 µM | 0.614 µM | > 100 µM | 0.502 µM | > 100 µM | 0.337 µM | > 100 µM
CCN(CC)CCCC(C)Nc1c(-c2ccccc2)cnc2cc(Cl)ccc12 (stereo not drawn) | 6.93 µM | 17.5 µM | 9.04 µM | 22.8 µM | 2.37 µM | 6.26 µM | 2.12 µM | 10.9 µM | 7.22 µM | 19.2 µM | 8.2 µM | 40.7 µM | 3.36 µM | 11.1 µM | 6.38 µM | 20.6 µM | 6.56 µM | 13.8 µM | 3.62 µM | 13.6 µM
CCN(C(=O)CN1CCN(c2cc3c(cc2F)c(=O)c(C(=O)O)cn3CC)CC1)c1nc(-c2ccccc2)cs1 | 0.408 µM | > 100 µM | 0.412 µM | > 100 µM | – | – | 0.312 µM | > 100 µM | 0.259 µM | 0.813 µM | 0.365 µM | > 100 µM | 0.381 µM | > 100 µM | 0.384 µM | > 100 µM | 0.248 µM | 0.692 µM | 0.356 µM | > 100 µM
O=C1/C(=C/c2cccc(Br)c2)COc2ccc(O)c(O)c21 | 1.7 µM | 3.1 µM | 1.06 µM | 3.52 µM | 1.64 µM | 3.14 µM | 1.21 µM | 2.47 µM | 0.175 µM | 0.361 µM | 1.83 µM | 4.82 µM | 1.38 µM | 2.84 µM | 1.46 µM | 4.1 µM | 1.53 µM | 3.11 µM | 0.866 µM | 3.88 µM
COC(=O)C#CCC1CCCC1C1SCCS1 (stereo not drawn) | – | > 100 µM | – | > 100 µM | – | > 100 µM | – | > 100 µM | – | > 100 µM | – | > 100 µM | – | > 100 µM | – | > 100 µM | – | 74.6 µM | – | –
O=C(N/C(=C\c1cc(Cl)ccc1Cl)c1nc2ccc(Cl)cc2[nH]1)c1ccccc1 | – | 10.9 µM | – | 31.1 µM | – | 24.8 µM | – | 66.4 µM | – | 25 µM | – | 38.1 µM | – | 29.2 µM | – | 71.9 µM | – | 32.4 µM | – | 31 µM
CCSc1nc(N)c(C#N)c(-c2ccco2)c1C#N | 21.3 µM | 78.1 µM | 42.2 µM | > 100 µM | 32.6 µM | > 100 µM | 13.7 µM | 67.6 µM | 91.5 µM | > 100 µM | 41.4 µM | > 100 µM | 56.4 µM | > 100 µM | 39.6 µM | > 100 µM | > 100 µM | > 100 µM | 28.4 µM | > 100 µM
CCN(CC)CCCC(C)Nc1c(Sc2cnc3cc(Cl)ccc3c2NC(C)CCCN(CC)CC)cnc2cc(Cl)ccc12 (stereo not drawn) | – | 3.24 µM | – | 2.92 µM | – | 3.13 µM | – | 2.86 µM | – | 3.15 µM | – | 3.24 µM | – | 3.22 µM | – | 3.01 µM | – | 3.3 µM | – | 3.16 µM
COc1cc(/C=C/[N+](=O)[O-])cc(OC)c1OC | 2.49 µM | 6.07 µM | 1.71 µM | 4.16 µM | 1.72 µM | 3.49 µM | 1.49 µM | 7.39 µM | 1.79 µM | 3.57 µM | 4.42 µM | 19.4 µM | 1.47 µM | 2.97 µM | 1.9 µM | 3.53 µM | 3.05 µM | 7.11 µM | 1.96 µM | 5.04 µM
COc1cccc2c1[C@H]1CO[C@H]3C4C[C@H](C(=O)O)C([C@@H](C2)N13)N4C (stereo partly drawn) | – | 5.71 µM | 3.61 µM | 8.4 µM and 5.82 µM | 0.0475 µM | – | 2.17 µM and 2.9 µM | 6.06 µM and 28.8 µM | 0.0497 µM | 0.914 µM and 0.109 µM | 10.1 µM | 99 µM | 0.136 µM | 2.42 µM and 0.576 µM | – | 4.67 µM | 0.245 µM | 2.11 µM and 0.655 µM | – | 6.12 µM
